Results from US20250381200A1, “SINGLE-INJECTION METHODS AND FORMULATIONS TO CONTROL THE ONSET OF ESTRUS AND OVULATION IN BOVINE, CAPRINE, OVINE, CAMELID AND OTHER FEMALE ANIMALS” (Therio, LLC, priority 2024, published 2025).
Like-named read-outs stand apart in the source and are kept apart here.

Legend:
[1] = bovine, in vivo
[2] = bovine, in vivo; remark: listed apart in the source

P4 concentration in the blood stream after decrease [1]: 0.2 to 0.6 ng/mL
P4 concentration in the blood stream, achieved and maintained [1]: 2.0 to 3.0 ng/mL
P4 concentration in the blood stream after decrease [2]: 1.0-1.5 ng per ml
P4 concentration in the blood stream, achieved within 12 hours and maintained [2]: 2.0 to 3.0 ng/mL
Compound: CC(=O)[C@H]1CC[C@H]2[C@@H]3CCC4=CC(=O)CC[C@]4(C)[C@H]3CC[C@]12C [P4, progesterone]
